The target of this assay is enzyme having α-1,4 hydrolytic activity derived from Sulfolobus acidocaldarius DSM 639 (purified, about 95 kDa; EC 3.2.1.1 / amylopullulanase) (Sulfolobus acidocaldarius, UniProt Q4J9M2). In words: biochemical. The procedure: In a hermetically sealed tube, 25 μl of solution C was mixed with 25 μl of water and then added to 250 μl of a solution containing 0.1% (w/v) Lintner'starch (Baker), citrate/phosphate buffer (100 mM/200 mM) at various pH values (as described in detail below). The mixture was then incubated for 15 minutes at various temperatures (see below). Incubation was terminated by transferring the tube to an ice/water bath (0° C.).
The absorbance was measured at 620 nm (Pharmacia LKB Ultraspec Plus).
A blank assay was performed by replacing the 50 μl enzyme solution C with water.
The relative activity (relative units) was calculated from the standard curve by calculation of the value [(ODb -ODs)/ODb ]×100, and then linearly extrapolating the corresponding volume (μl) from the two closest points of the standard curve.
The relative (α-1,4 hydrolytic) activity (%) is defined as the extrapolated volume value (μl), deduced from the standard curve.
Respective samples of Solution C were obtained and prepared as described above in Example 4 to perform the standard assay.
The influence of various metal cations and of EDTA on the α-1,4 hydrolytic activity of the enzyme derived from Sulfolobus acidocaldarius DSM 639 was determined by running the standard assay described above in Example 4 on each of the tubes (samples) in the presence of the additional various metal cations at a final concentration of 2, 5, and 10 mM.

The mark [1] stands for this setting: read-out: Relative activity (%).

From patent US6100073A, “Acid-stable and thermo-stable enzymes derived from sulfolobus species” (Genencor International, Inc., priority 1994, dated 2000) come the findings set out here.

Sequence of enzyme having α-1,4 hydrolytic activity derived from Sulfolobus acidocaldarius DSM 639 (purified, about 95 kDa; EC 3.2.1.1 / amylopullulanase) (Q4J9M2 1-884): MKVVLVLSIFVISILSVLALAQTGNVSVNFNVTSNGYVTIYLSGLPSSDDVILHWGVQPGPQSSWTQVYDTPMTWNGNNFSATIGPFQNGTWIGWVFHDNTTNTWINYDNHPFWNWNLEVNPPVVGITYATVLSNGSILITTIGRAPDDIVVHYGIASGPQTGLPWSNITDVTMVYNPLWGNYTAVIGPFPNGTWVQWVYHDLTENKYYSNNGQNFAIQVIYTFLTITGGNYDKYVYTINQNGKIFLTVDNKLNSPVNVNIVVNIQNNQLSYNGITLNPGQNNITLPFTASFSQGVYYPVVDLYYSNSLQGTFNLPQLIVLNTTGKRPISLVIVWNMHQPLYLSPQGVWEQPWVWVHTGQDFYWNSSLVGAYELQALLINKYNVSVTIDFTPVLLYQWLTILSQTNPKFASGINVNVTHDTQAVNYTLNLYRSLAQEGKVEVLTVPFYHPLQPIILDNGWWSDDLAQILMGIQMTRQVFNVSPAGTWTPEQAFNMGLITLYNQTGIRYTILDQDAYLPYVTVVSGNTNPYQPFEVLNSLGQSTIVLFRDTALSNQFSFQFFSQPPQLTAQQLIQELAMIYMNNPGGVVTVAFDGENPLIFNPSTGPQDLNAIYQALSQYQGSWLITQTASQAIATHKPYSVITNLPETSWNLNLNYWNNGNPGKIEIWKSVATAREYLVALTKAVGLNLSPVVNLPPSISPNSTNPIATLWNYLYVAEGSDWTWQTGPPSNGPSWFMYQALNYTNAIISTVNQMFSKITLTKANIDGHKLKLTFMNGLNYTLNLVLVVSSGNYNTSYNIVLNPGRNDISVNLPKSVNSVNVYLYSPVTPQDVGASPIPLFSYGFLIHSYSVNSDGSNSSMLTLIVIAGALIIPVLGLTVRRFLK

Consider `O=C(O)CN(CCN(CC(=O)O)CC(=O)O)CC(=O)O` [EDTA], for which the “α-1,4 hydrolytic activity in the absence of calcium (with EDTA)” value (EDTA 2-10 mM, summary of Table 6) was “fully active”. In addition, under setting [1], the activity at 2000 µM stood at 97%, the activity at 5000 µM was 101% and the activity at 10000 µM was determined as 98%.
